Patent US10722516B2, “Use of landiolol hydrochloride in the long-term treatment of tachyarrhythmias” (AOP Orphan Pharmaceuticals AG, priority 2013, dated 2020)
Entries after “also recorded” stand apart in the source; their conditions may differ. Where a name gives a salt, the structure may show the parent alone.

System: healthy volunteers
Experiment: 24 h long-term infusion study, AOP LDLL600 against esmolol: heart rate
Type: in vivo, human
Settings: for heart rate: Table 1
Protocol: A single centre prospective, randomized, double blind, crossover, pharmacokinetic, safety and tolerability study to compare long-term infusion administration of AOP LDLL600 against esmolol in healthy volunteers was performed.
Landiolol hydrochloride lyophilized (LDLL600) comprises 600 mg landiolol hydrochloride, 600 mg mannitol, pH 6.5. The primary packing of LDLL600 is 50 ml vial, the reconstitution volume is 50 ml and the final product concentration is 12 mg/mL landiolol HCl.
12 subjects were administered AOP LDLL600 or Esmolol (Brevibloc, 2500 mg/250 ml) in 1:1 ratio in double-blind, randomized, cross-over setting. PK, systemic cardiovascular and local tolerability and safety of the 24 h-long term infusions of three dose levels of both IMPs during each treatment period were assessed.
Landiolol was infused over 24 h in a dose of 10 μg/KG/min (2 hrs), followed by 20 μg/KG/min (2 hrs), followed by 40 μg/KG/min for 20 hrs.
Dosing algorithm was body weight divided by 20, 10 and 5 in ml/h giving 10, 20 and 40 μg/KG/min at a concentration of 12 mg/ml. No severe adverse drug reactions, mild local reactions, 1 severe local reaction (Esmolol High Dose).
Landiolol was infused over 24 h in a dose of 10, 20 and 40 μg/KG/min, i.e. 10 μg/KG/min landiolol were administered for 2 hrs, followed by 2 hrs administration of 20 μg/KG/min and further followed by 20 hrs administration of 40 μg/KG/min.
Post-infusion follow up measurements were performed immediately after 20 hrs administration study, i.e. 2, 4 min etc. after stop of landiolol administration.

[1] = LD infusion (landiolol 10, esmolol 50 μg/kg/min), 3 min
[2] = LD infusion (landiolol 10, esmolol 50 μg/kg/min), 4 min
[3] = LD infusion (landiolol 10, esmolol 50 μg/kg/min), 6 min
[4] = LD infusion (landiolol 10, esmolol 50 μg/kg/min), 8 min
[5] = LD infusion (landiolol 10, esmolol 50 μg/kg/min), 12 min
[6] = LD infusion (landiolol 10, esmolol 50 μg/kg/min), 16 min
[7] = LD infusion (landiolol 10, esmolol 50 μg/kg/min), 20 min
[8] = LD infusion (landiolol 10, esmolol 50 μg/kg/min), 30 min
[9] = LD infusion (landiolol 10, esmolol 50 μg/kg/min), 60 min
[10] = LD infusion (landiolol 10, esmolol 50 μg/kg/min), 90 min
[11] = LD infusion (landiolol 10, esmolol 50 μg/kg/min), 2 h
[12] = MD infusion (landiolol 20, esmolol 100 μg/kg/min, after 2 h LD), 2 min
[13] = MD infusion (landiolol 20, esmolol 100 μg/kg/min, after 2 h LD), 3 min
[14] = MD infusion (landiolol 20, esmolol 100 μg/kg/min, after 2 h LD), 4 min
[15] = MD infusion (landiolol 20, esmolol 100 μg/kg/min, after 2 h LD), 6 min
[16] = MD infusion (landiolol 20, esmolol 100 μg/kg/min, after 2 h LD), 8 min
[17] = MD infusion (landiolol 20, esmolol 100 μg/kg/min, after 2 h LD), 16 min
[18] = MD infusion (landiolol 20, esmolol 100 μg/kg/min, after 2 h LD), 20 min
[19] = MD infusion (landiolol 20, esmolol 100 μg/kg/min, after 2 h LD), 30 min
[20] = MD infusion (landiolol 20, esmolol 100 μg/kg/min, after 2 h LD), 60 min
[21] = MD infusion (landiolol 20, esmolol 100 μg/kg/min, after 2 h LD), 90 min
[22] = MD infusion (landiolol 20, esmolol 100 μg/kg/min, after 2 h LD), 2 h

In the case of `COC(=O)CCc1ccc(OCC(O)CNC(C)C)cc1` (stereo not drawn) [Esmolol, Esmolol hydrochloride], the “heart rate, Mean (SD)” value (LD infusion (landiolol 10, esmolol 50 μg/kg/min), 2 min) was 66.9 (6.28) beats per minute, the “change of heart rate from predose, Mean (SD)” value (from here on “change of heart rate … (SD)”) [1] was −1.9 (5.34) beats per minute and the “heart rate, Mean (SD)” value [1] was 65.7 (4.91) beats per minute. The “change of heart rate … (SD)” value [2] was −2.1 (7.64) beats per minute, the “heart rate, Mean (SD)” value [2] was 65.6 (6.44) beats per minute and the “change of heart rate … (SD)” value [3] was −1.6 (5.96) beats per minute. The “heart rate, Mean (SD)” value [3] was 66.0 (4.52) beats per minute, the “change of heart rate … (SD)” value [4] was −2.1 (7.05) beats per minute and the “heart rate, Mean (SD)” value [4] was 65.5 (4.35) beats per minute. The “change of heart rate … (SD)” value [5] was −2.4 (6.77) beats per minute, the “heart rate, Mean (SD)” value [5] was 65.2 (4.74) beats per minute and the “change of heart rate … (SD)” value [6] was −2.3 (7.58) beats per minute. For the same compound, the “heart rate, Mean (SD)” value [6] was 65.4 (5.51) beats per minute, the “change of heart rate … (SD)” value [7] was −2.0 (9.49) beats per minute and the “heart rate, Mean (SD)” value [7] was 65.6 (7.07) beats per minute. The “change of heart rate … (SD)” value [8] was −5.1 (6.29) beats per minute, the “heart rate, Mean (SD)” value [8] was 62.6 (5.05) beats per minute and the “change of heart rate … (SD)” value [9] was −4.1 (8.00) beats per minute. The “heart rate, Mean (SD)” value [9] was 63.6 (4.67) beats per minute, the “change of heart rate … (SD)” value [10] was −3.5 (6.55) beats per minute and the “heart rate, Mean (SD)” value [10] was 64.1 (4.99) beats per minute. For the same compound, the “change of heart rate … (SD)” value [11] was −3.9 (7.12) beats per minute, the “heart rate, Mean (SD)” value [11] was 63.8 (4.89) beats per minute and the “change of heart rate … (SD)” value (MD Predose (end of 2 h LD)) was −3.9 (7.12) beats per minute. For the same compound, the “heart rate, Mean (SD)” value (MD Predose (end of 2 h LD)) was 63.8 (4.89) beats per minute, the “change of heart rate … (SD)” value [12] was −4.3 (10.36) beats per minute and the “heart rate, Mean (SD)” value [12] was 63.4 (7.88) beats per minute. The “change of heart rate … (SD)” value [13] was −5.1 (8.40) beats per minute, the “heart rate, Mean (SD)” value [13] was 62.6 (5.50) beats per minute and the “change of heart rate … (SD)” value [14] was −2.7 (8.96) beats per minute. For the same compound, the “heart rate, Mean (SD)” value [14] was 64.9 (9.04) beats per minute, the “change of heart rate … (SD)” value [15] was −3.8 (7.45) beats per minute and the “heart rate, Mean (SD)” value [15] was 63.9 (5.10) beats per minute. For the same compound, the “change of heart rate … (SD)” value [16] was −5.6 (7.54) beats per minute, the “heart rate, Mean (SD)” value [16] was 62.1 (4.46) beats per minute and the “heart rate, Mean (SD)” value (MD infusion (landiolol 20, esmolol 100 μg/kg/min, after 2 h LD), 12 min) was 61.8 (5.07) beats per minute. The “change of heart rate … (SD)” value [17] was −3.5 (7.14) beats per minute, the “heart rate, Mean (SD)” value [17] was 64.1 (5.02) beats per minute and the “change of heart rate … (SD)” value [18] was −5.0 (7.34) beats per minute. The “heart rate, Mean (SD)” value [18] was 62.6 (4.33) beats per minute, the “change of heart rate … (SD)” value [19] was −5.6 (8.20) beats per minute and the “heart rate, Mean (SD)” value [19] was 62.1 (5.00) beats per minute. For the same compound, the “change of heart rate … (SD)” value [20] was −1.4 (10.41) beats per minute, the “heart rate, Mean (SD)” value [20] was 66.2 (5.04) beats per minute and the “change of heart rate … (SD)” value [21] was −2.2 (8.59) beats per minute. For the same compound, the “heart rate, Mean (SD)” value [21] was 65.4 (6.17) beats per minute, the “change of heart rate … (SD)” value [22] was −3.9 (7.75) beats per minute and the “heart rate, Mean (SD)” value [22] was 63.7 (4.86) beats per minute. The “heart rate, Mean (SD)” value (Predose (before first IMP administration)) was 67.6 (7.87) beats per minute, the heart rate (Control (before administration)) was 67 beats per minute and the heart rate (high dose (landiolol 40, esmolol 200 μg/kg/min), time 720 min) was 67.9 beats per minute. For the same compound, the heart rate (high dose (landiolol 40, esmolol 200 μg/kg/min), time 1200 min) was 67.9 beats per minute, the heart rate (low dose (landiolol 10, esmolol 50 μg/kg/min), time 12 min) was 65.2 beats per minute and the heart rate (low dose (landiolol 10, esmolol 50 μg/kg/min), time 16 min) was 65.4 beats per minute. The heart rate (low dose (landiolol 10, esmolol 50 μg/kg/min), time 30 min) was 62.6 beats per minute, the heart rate (low dose (landiolol 10, esmolol 50 μg/kg/min), time 60 min) was 63.6 beats per minute and the heart rate (low dose (landiolol 10, esmolol 50 μg/kg/min), time 120 min) was 63.8 beats per minute. The heart rate (medium dose (landiolol 20, esmolol 100 μg/kg/min), time 240 min) was 63.7 beats per minute, the heart rate (time after administration 12 min (end at 1440 min)) was 74.7 beats per minute and the heart rate (time after administration 16 min) was 74 beats per minute. For the same compound, the heart rate (time after administration 30 min) was 76.8 beats per minute, the heart rate (time after administration 60 min) was 73.1 beats per minute and the heart rate (time after administration 120 min) was 70.2 beats per minute. For the same compound, the “overshoot effect on heart rate” value (after termination of long term administration, hydrochloride) was “the heart rate and blood pressure raise immediately over control values; also recorded: significant tolerance and overshoot effect”, the “additive effect of raising the dose (tolerance state)” value (esmolol MD, HD) was “does not provide any additive effect” and the “heart rate effect during administration” value (long term administration) was “relative increase of the heart rate and blood pressure already after 60 minutes of administration”. The tolerance effect (long term administration) was “significant tolerance and overshoot effect”, the “remark on heart rate response after infusion stop” value (remark column of Table 2, FU time points 20 h 6 min to 21 h) was “overshoot” and the “remark on heart rate response during infusion” value (remark column of Table 2, time points MD 60 min to HD 20 h (end)) was “Tolerance state”.
